Data set [1] can be described thus: Aqueous solubility of crystalline L-malate salt forms versus free base. In kind it is physicochemical. Conditions: compared to the free base amorphous form.
Data set [2] has as its target T1, human recombinant ghrelin receptor (GHS-R1a) (Homo sapiens, UniProt Q92847).
T1 construct: host or cells: CHO-K1
The experiment in a line: Calcium assay, CHO-K1 cells expressing hGHS-R1a (Fluo-4). In kind it is cell-based. Conditions: for Emax: CHO-K1, relative to the Emax induced by MK-0677 (defined as 100%), read-out: hGHS-R1a Ca assay Emax/%. The protocol:
(§1) Chinese hamster ovary (CHO-K1) cells expressing human recombinant ghrelin receptor (GHS-R1a) were purchased from Euroscreen (ES-410-C) and propagated in UltraCHO medium containing glutamine and supplemented with 1% heat inactivated foetal calf serum (FCS), 100 U/ml penicillin, 100 mg/l streptomycin and 0.8 g/l geneticin. Cells were sub-cultured twice a week with a 1:10 dilution. For passaging, cells were washed with 1× DPBS without calcium and magnesium, trypsinised for 10 min with 0.05% Trypsin/EDTA and resuspended in cell culture medium.
Cells were diluted to achieve 1×10^6 cells/ml, seeded in 384-well black clear bottom CellBind plates at 25000 cells/well (25u1) and incubated overnight at 37° C./5% CO2 Cells were expected to be 85-90% confluent on the day of assay (checked under the microscope) to ensure a high quality assay. Media was manually removed and 40 μl of loading solution containing probenecid and Fluo-4 no wash dye (a calcium indicator, Invitrogen F36206) were added to each well. After 30 min at 37° C. followed by another 30 min at RT, cpds were added to the wells. To generate a dose response up to 30 μM, 10 mM compound stocks in 100% (v/v) DMSO were firstly diluted in 50% (v/v) DMSO. Then, serial dilutions aimed at a full logarithmic dose responses (8 point) were performed in assay buffer [1×HBSS, 20 mM Hepes, 0.1% (w/v) BSA] to give 2.5% (v/v) DMSO and 5× final compound concentrations. The final assay DMSO concentration was 0.5% (v/v). After loading the cells with Fluo-4 containing solution, plates were read on a CeIlLux instrument (Perkin Elmer). A protocol set up to add 10 μl of 5× compound and to read the plate for 60sec after adding the compound at 17th sec was used. Fluorescence excitation took place at 494 nm and emission at 516 nm. EC50 values of agonists were calculated by fitting the percent stimulation over background [(Max-Min)/Min] using the nonlinear logistic function of the Prism 5 software (GraphPad, USA).

The target of data set [3] is T1, human recombinant ghrelin receptor (GHS-R1a). The experiment in a line: cAMP assay (HTRF), CHO-hGHS-R1a cells. In kind it is cell-based. Conditions: relative to the ghrelin response (defined as 100%). The protocol:
as §1
The Homogeneous Time-Resolved Fluorescence (HTRF) cAMP dynamic 2 kit (Cisbio International, France) was used as follows. CHO-hGHS—R1a or CHO-rGHS—R1a cells were seeded in a volume of 25 μl culture media at 10,000 cells/well (400,000 cells/ml) in Greiner white 384-well high volume plates and incubated overnight (18-24 h) at 37° C./5% CO2. Then, media was removed and 6 μl assay buffer [HBSS, 10 mM Hepes, 0.2% (w/v) BSA, 1.7 mM IBMX, (pH7.4)] were added to the wells. To generate a dose response up to 30 μM, 10 mM compound stocks in 100% (v/v) DMSO were firstly diluted in 50% (v/v) DMSO followed by a further dilution into assay buffer. Then, 4 μl of 2.5× compound (dose response as 9 point log serial dilution in assay buffer from 30 μM as maximum concentration) were added to each well achieving a final DMSO assay concentration of 0.8% (v/v). 0.1 μM forskolin was added as positive control. After 30 min (rGHS—R1a cell line) or 60 min (hGHS—R1a cell line) incubation at 37° C./5% CO2, 5 μl of cAMP-d2 and 5 μl of anti-cAMP antibody-cryptate, (both made in lysis buffer), were added to the plate followed by 1 h incubation at RT. During this time, cAMP produced by the cells competed with cAMP-d2 for the anti-cAMP antibody-cryptate molecule. Then, the plate was read on the Pherastar instrument (BMG, Germany) at two different emission wavelengths ([…]). Increasing levels of endogenous cAMP produced by cells could be followed by a decrease of FRET fluorescent signal and viceversa. Values represented by a change in arbitrary fluorescence ratios (665/620) were converted into cAMP concentrations by using a standard curve, the reagents for which were supplied with the kit. EC50 values of agonists were calculated using the nonlinear logistic function of the Prism 5 software (GraphPad, USA). Emax were expressed as relative values of the ghrelin response, which was defined as 100%.
In general terms: Changes in cAMP serve as a functional read-out for many G protein-coupled receptors.

The test system of the next data set is rat fundus. As to the kind of experiment: Rat fundus contractility assay (EFS-induced contraction of muscle strips). Conditions: for EC50: increase of EFS-induced contraction, mean of preparations from at least 3 animals; for Emax/% / Emax: relative to the response to ghrelin (100 nM), defined as 100%. The protocol: Male Sprague Dawley rats (180-250 g) were culled by cervical dislocation and the fundus was removed. Each fundus was placed on a Krebs Henseleit (KH) buffer soaked dissection dish and cut along the long curvature to form a flattened sheet that was pinned in each corner. Four adjacent longitudinal strips (10×3 mm) were cut and the mucosa removed by sharp dissection. Each muscle strip was mounted in a 10 ml organ bath containing oxygenated KH at 37° C. Each strip was connected to an isometric force transducer, calibrated initially using a 5 g weight. The signal (g tension) was amplified and responses recorded by a Powerlab data capture system, connected to a computer running Labchart software (version 5.0). Tissues were placed under 1 g tension for an equilibration period of 30 min or until the baseline tension had stabilised. Carbachol (CCh, 100 nM) was then administered to establish the maximum contractile response of each preparation. Tissues were washed thoroughly and left for 30 min to re-equilibrate. Next, the muscle strips underwent electrical field stimulation (EFS). Maximal EFS pulse trains of 12V, 5 Hz, 0.1 msec pulse width, for 2 sec every 60 sec were applied until consistent electrically-stimulated phasic contractions were recorded. The voltage was then reduced in 1V increments until a consistent submaximal (EC50-75) EFS response was observed. Ghrelin (100 nM) was administered and left until a maximum response was obtained. Tissues were then washed thoroughly and left for 30 min. Once the EFS-induced contraction had re-stabilised, cumulative additions (10 nM-10 μM) of each test compound were administered. Individual responses were calculated by determining the peak of the EFS-induced contraction minus the baseline. […] The mean EC50 value for compounds was generated from data obtained on stomach preparations from at least 3 different animals.

From patent publication US20130296358A1, “3-SPIROCYCLIC PIPERIDINE DERIVATIVES AS GHRELIN RECEPTOR AGONISTS” (priority 2012, published 2013) come the findings set out here.

T1 sequence (Q92847 whole entry): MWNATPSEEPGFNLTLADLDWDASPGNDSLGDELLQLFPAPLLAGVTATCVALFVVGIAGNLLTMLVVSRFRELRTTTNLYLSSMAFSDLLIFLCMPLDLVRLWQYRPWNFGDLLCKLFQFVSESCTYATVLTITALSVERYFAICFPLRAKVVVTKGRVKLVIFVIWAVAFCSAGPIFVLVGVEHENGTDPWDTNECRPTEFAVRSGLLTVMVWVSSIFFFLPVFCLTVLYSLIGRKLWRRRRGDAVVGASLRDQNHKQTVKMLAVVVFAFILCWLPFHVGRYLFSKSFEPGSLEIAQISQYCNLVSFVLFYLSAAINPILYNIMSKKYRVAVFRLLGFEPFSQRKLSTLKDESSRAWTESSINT

On to `CN1C[C@@H](c2ccccc2)[C@@]2(CCCN(C(=O)[C@@H](COCc3ccccc3)NC(=O)C(C)(C)N)C2)C1=O.O=C(O)C[C@H](O)C(=O)O` [2-Amino-N—[(R)-1-benzyloxymethyl-2-((4S,5R)-2-methyl-1-oxo-4-phenyl-2,7-diaza-spiro[4.5]dec-7-yl)-2-oxo-ethyl]-2-methyl-propionamide L-malate salt], for which the aqueous solubility entry in data set [1] is “increased aqueous solubility”.

Consider `CN1C[C@@H](c2ccc(F)cc2)[C@@]2(CCCN(C(=O)[C@@H](COCc3ccccc3)NC(=O)C(C)(C)N)C2)C1=O.O=C(O)C[C@H](O)C(=O)O` [2-amino-N-((2R)-3-(benzyloxy)-1-((4S,5R)-4-(4-fluorophenyl)-2-methyl-1-oxo-2,7-diazaspiro[4.5]decan-7-yl)-1-oxopropan-2-yl)-2-methylpropanamide L-malate salt], for which the aqueous solubility entry in data set [1] is given as “increased aqueous solubility”.

As a reminder, the EC50 is the concentration at which the effect is half-maximal. Turning to `CN1CC(c2ccccc2)C2(CCCN(C(=O)[C@@H](CCCc3ccccc3)NC(=O)C(C)(C)N)C2)C1=O` (single isomer, unassigned) [Example 1.32], the Emax in data set [2] came out at 103%. In addition, in data set [3], the Emax is 176%. Further, in the data set on rat fundus, a half-maximal effect (EC50) was put at 19 nM and the Emax/% is reported as 109%.

With `CC(C)(C)CN1CC(c2ccccc2)C2(CCCN(C(=O)[C@@H](COCc3ccccc3)NC(=O)C(C)(C)N)C2)C1=O` (single isomer, unassigned) [Example 1.40], the figures for the Emax (in data set [2]; in data set [3]; with rat fundus (Rattus norvegicus)) were 86%, 164% and 117%, respectively. Also, the 50% effective concentration (EC50) in the data set on rat fundus (Rattus norvegicus) was determined as 59 nM.

Turning to `C[C@H](OCc1ccccc1)[C@@H](NC(=O)C(C)(C)N)C(=O)N1CCCC2(C1)C(=O)N(C)CC2c1ccccc1` (single isomer, unassigned) [Example 1.34], the Emax was 107% in data set [2], 168% in data set [3] and 115% in the data set on rat fundus (Rattus norvegicus). Also, the midpoint of the response with rat fundus (Rattus norvegicus), the EC50, lay at 68 nM.

As to `Cc1ccc(COC[C@@H](NC(=O)C(C)(C)N)C(=O)N2CCCC3(C2)C(=O)N(C)CC3c2ccc(F)cc2)cc1` (single isomer, unassigned) [Example 1.29], the values for the Emax (in data set [2]; in data set [3]; in the data set with rat fundus (Rattus norvegicus)) were 102%, 243% and 100%, respectively. The 50% effective concentration (EC50) with rat fundus (Rattus norvegicus) came to 48 nM.

Take `CN1C(=O)C2(CCCN(C(=O)[C@@H](COCc3ccccc3)NC(=O)C(C)(C)N)C2)C1c1ccccc1` (single isomer, unassigned) [Example 2.0(ii)]: the figures for the Emax (in data set [2]; in data set [3]; with rat fundus (Rattus norvegicus)) were 99%, 193% and 63%, respectively. In the data set on rat fundus, this molecule showed an EC50 of 17 nM.

Regarding `Cc1ccc(C2CN(C)C(=O)C23CCCN(C(=O)[C@@H](COCc2ccccc2)NC(=O)C(C)(C)N)C3)cc1.O=C(O)C[C@H](O)C(=O)O` (stereo partly drawn) [2-amino-N-((2R)-3-(benzyloxy)-1-(2-methyl-1-oxo-4-p-tolyl-2,7-diazaspiro[4.5]decan-7-yl)-1-oxopropan-2-yl)-2-methylpropanamide L-malate salt], the aqueous solubility entry in data set [1] is “increased aqueous solubility”.

On to `CN(C)C(=O)CN1CC(c2ccccc2)C2(CCCN(C(=O)[C@@H](COCc3ccccc3)NC(=O)C(C)(C)N)C2)C1=O` (single isomer, unassigned) [Example 1.16], for which the Emax in data set [2] came to 101%; in data set [3], 210%; with rat fundus (Rattus norvegicus), 124%. Moreover, the EC50 with rat fundus (Rattus norvegicus) is 13 nM.

With `CN1CC(c2ccccc2)C2(CCCN(C(=O)[C@@H](COCc3ccccc3)NC(=O)C(C)(C)N)C2)C1=O` (single isomer, unassigned) [Example 1.21], the “hGHS-R1a Ca assay Emax/%” value in data set [2] (relative to the Emax induced by MK-0677 (defined as 100%)) was 105%. In addition, the “hGHS-R1a cAMP assay Emax/%” value in data set [3] came to 122%. Further, in the data set with rat fundus, the EC50 was determined as 84 nM and the Emax/% is recorded as 81%.

For the molecule `CN1CC(c2ccc(F)cc2)C2(CCCN(C(=O)[C@@H](Cc3c[nH]c4ccccc34)NC(=O)C(C)(C)N)C2)C1=O` (single isomer, unassigned) [Example 1.11], the Emax in data set [2] was 102%; in data set [3] it was 289%; in the data set with rat fundus (Rattus norvegicus), 99%. In addition, it took 24 nM to reach a half-maximal effect in the data set on rat fundus (Rattus norvegicus) (EC50).
